We go through six compounds from patent US20100311714A1, “1H-IMIDAZO[4,5-c]QUINOLINONE COMPOUNDS” (priority 2009, published 2010).

Test [1] has as its target T1, PI3K alfa (Homo sapiens, UniProt P42336).
T1 construct: His tag (C); made in house; host or cells: baculovirus BV1075; Tn5 (Trichoplusia ni) or TiniPro insect cells
In words: PI3K alpha kinase assay (Kinase-Glo luminescence). It is filed as biochemical. The following applies: read-out: EPK_PI3Kalfa/IC50. Put shortly:
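Kinase-Glo luminescence read of ATP remaining after PI3Kα (10 nM) phosphorylates 10 μg/mL bovine liver phosphatidylinositol with 1 μM ATP, pH 7.5 TRIS, 3 mM MgCl2, 0.05% CHAPS; 60 min at room temperature. IC50 from 4-parameter logistic fit over 8 concentrations.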

Test [2] has as its target T2, mTOR (Homo sapiens, UniProt P42345).
T2 construct: purchased Invitrogen Corporation (Carlsbad/Calif., USA) PV4753
In words: Biochemical assay for m-TOR by TR-FRET. The conditions noted are these: read-out: EPK_mTOR/IC50. Put shortly: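 mTOR (0.5 nM) phosphorylates GFP-4EBP1 (400 nM) with 8 μM ATP at rt in 50 mM HEPES pH 7.5, 10 mM MnCl2, 50 mM NaCl, 1 mM EGTA, 1 mM DTT; compounds 0.003–10 μM final. EDTA stop with Tb-anti-p4EBP1[pT46] antibody (0.5 nM); TR-FRET read after 15 min against no-enzyme and vehicle controls.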

T1 sequence (P42336 with tags, fused parts or gaps limits assumed): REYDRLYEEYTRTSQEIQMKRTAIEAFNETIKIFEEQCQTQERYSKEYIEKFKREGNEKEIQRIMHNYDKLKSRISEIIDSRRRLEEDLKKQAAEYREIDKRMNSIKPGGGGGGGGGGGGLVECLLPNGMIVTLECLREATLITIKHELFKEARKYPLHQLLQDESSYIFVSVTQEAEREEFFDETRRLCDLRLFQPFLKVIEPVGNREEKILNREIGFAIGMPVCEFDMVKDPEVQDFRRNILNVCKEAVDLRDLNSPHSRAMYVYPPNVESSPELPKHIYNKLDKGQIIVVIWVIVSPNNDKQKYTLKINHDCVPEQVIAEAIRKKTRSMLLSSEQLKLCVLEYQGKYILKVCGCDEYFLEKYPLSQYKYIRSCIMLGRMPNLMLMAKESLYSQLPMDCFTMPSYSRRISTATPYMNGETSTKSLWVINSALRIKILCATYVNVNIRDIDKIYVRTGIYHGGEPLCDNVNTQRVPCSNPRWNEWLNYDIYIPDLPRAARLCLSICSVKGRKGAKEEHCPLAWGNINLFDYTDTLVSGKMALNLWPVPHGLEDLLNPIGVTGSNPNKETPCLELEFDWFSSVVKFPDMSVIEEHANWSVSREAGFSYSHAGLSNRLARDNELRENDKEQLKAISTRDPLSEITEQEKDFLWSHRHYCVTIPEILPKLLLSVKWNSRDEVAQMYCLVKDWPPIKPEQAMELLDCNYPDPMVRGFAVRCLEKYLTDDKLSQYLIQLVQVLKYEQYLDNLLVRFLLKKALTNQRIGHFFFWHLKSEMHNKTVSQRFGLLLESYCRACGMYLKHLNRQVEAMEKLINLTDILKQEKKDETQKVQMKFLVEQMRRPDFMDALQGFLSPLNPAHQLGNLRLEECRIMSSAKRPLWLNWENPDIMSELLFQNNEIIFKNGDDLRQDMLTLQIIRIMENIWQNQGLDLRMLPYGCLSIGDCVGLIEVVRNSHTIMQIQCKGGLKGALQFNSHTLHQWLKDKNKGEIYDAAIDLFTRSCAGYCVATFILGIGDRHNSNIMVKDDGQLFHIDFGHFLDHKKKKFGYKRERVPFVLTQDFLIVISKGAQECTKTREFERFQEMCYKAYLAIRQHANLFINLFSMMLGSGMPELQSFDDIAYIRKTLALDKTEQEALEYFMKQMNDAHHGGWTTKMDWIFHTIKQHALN
T2 sequence (P42345 1360-2549 limits assumed): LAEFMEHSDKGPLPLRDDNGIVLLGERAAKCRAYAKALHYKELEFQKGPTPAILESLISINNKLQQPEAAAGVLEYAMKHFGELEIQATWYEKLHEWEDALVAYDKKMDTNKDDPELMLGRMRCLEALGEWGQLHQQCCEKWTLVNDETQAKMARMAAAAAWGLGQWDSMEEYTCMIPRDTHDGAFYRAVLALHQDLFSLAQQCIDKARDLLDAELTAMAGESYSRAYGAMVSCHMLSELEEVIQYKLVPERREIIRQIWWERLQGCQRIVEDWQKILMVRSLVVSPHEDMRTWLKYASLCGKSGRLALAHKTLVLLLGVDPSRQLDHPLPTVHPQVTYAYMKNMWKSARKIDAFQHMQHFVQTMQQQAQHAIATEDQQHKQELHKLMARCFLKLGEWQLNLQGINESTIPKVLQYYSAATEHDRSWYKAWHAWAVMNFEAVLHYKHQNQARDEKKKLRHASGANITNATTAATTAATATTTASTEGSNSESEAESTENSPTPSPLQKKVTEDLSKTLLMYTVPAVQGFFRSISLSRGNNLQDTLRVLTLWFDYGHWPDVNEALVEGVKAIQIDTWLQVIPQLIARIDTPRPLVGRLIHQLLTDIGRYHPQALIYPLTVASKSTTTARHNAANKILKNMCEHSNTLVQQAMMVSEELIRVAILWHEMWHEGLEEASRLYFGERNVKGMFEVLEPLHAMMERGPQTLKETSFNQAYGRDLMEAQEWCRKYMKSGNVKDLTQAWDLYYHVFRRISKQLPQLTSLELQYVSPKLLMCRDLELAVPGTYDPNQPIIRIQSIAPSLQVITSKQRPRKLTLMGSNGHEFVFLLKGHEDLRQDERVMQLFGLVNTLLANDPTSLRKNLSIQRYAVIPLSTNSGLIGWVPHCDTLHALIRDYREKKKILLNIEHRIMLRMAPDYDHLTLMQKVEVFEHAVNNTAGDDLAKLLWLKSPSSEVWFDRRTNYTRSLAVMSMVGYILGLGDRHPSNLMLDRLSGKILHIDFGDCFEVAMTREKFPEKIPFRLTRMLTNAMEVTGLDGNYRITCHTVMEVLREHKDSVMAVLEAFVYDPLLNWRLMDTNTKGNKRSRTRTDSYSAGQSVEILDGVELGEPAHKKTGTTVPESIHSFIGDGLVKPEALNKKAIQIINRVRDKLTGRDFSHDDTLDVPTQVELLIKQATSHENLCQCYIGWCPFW

Turning to `Cc1nc(N2CC(O)C2)ccc1-n1c(=O)n(C)c2cnc3ccc(-c4cncc(C(C)(C)O)c4)cc3c21` [Example 29.1, 1-[6-(3-Hydroxy-azetidin-1-yl)-2-methyl-pyridin-3-yl]-8-[5-(1-hydroxy-1-methyl-ethyl)-pyridin-3-yl]-3-methyl-1,3-dihydro-imidazo[4,5-c]quinolin-2-one], the figures for the IC50 in test [1] and in test [2] were 19 nM and 5 nM, respectively.
On the same counts, the results for `COc1cc(-c2ccc3ncc4c(c3c2)n(-c2ccc(N)nc2C)c(=O)n4C)cnc1CO` [Example 30.1, 1-(6-Amino-2-methyl-pyridin-3-yl)-8-(6-hydroxymethyl-5-methoxy-pyridin-3-yl)-3-methyl-1,3-dihydro-imidazo[4,5-c]quinolin-2-one] are 54 nM and 118 nM.
Take `CNc1ncc(-c2ccc3ncc4c(c3c2)n(-c2ccc(N3CC[C@H](O)C3)nc2C)c(=O)n4C)cc1Cl` [Example 32.4, 8-(5-Chloro-6-methylamino-pyridin-3-yl)-1-[6-((S)-3-hydroxy-pyrrolidin-1-yl)-2-methyl-pyridin-3-yl]-3-methyl-1,3-dihydro-imidazo[4,5-c]quinolin-2-one]: the values for the IC50 in test [1] and in test [2] were 18 nM and 7 nM, respectively.
For the compound `COc1cc(-c2ccc3ncc4c(c3c2)n(-c2ccc(N3CC[C@H](O)C3)nc2C)c(=O)n4C)cnc1CO` [Example 32.7, 8-(6-Hydroxymethyl-5-methoxy-pyridin-3-yl)-1-[6-((S)-3-hydroxy-pyrrolidin-1-yl)-2-methyl-pyridin-3-yl]-3-methyl-1,3-dihydro-imidazo[4,5-c]quinolin-2-one], the IC50 is 26 nM in test [1] and 50 nM in test [2].
For `CNc1ncc(-c2ccc3ncc4c(c3c2)n(-c2ccc(N3CC[C@@H](O)C3)nc2C)c(=O)n4C)cn1` [Example 34.1, 1-[6-((R)-3-Hydroxy-pyrrolidin-1-yl)-2-methyl-pyridin-3-yl]-3-methyl-8-(2-methylamino-pyrimidin-5-yl)-1,3-dihydro-imidazo[4,5-c]quinolin-2-one], the figures for the IC50 in test [1] and in test [2] were 97 nM and 28 nM, respectively.
On the same counts, the results for `CCNc1cc(-c2ccc3ncc4c(c3c2)n(-c2ccc(N3CC(F)(F)C(F)(F)C3)nc2C)c(=O)n4C)cnc1CO` [Example 35.2, 8-(5-Ethylamino-6-hydroxymethyl-pyridin-3-yl)-3-methyl-1-[2-methyl-6-(3,3,4,4-tetrafluoro-pyrrolidin-1-yl)-pyridin-3-yl]-1,3-dihydro-imidazo[4,5-c]quinolin-2-one] are 27 nM and 45 nM.
